Tests used:
[1] = system: normal NK cells expanded with K562-aAPC; test: percent inhibition of viability; higher = more inhibition; conditions: 72 h, IL-2 2.5 ng/mL
Method: (§1)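 Drug sensitivity and resistance testing on K562-aAPC-expanded normal NK cells: 5 concentrations (10-fold steps over a 10,000-fold range), 72 h at 37 °C, viability by CellTiter-Glo normalised to DMSO and benzethonium chloride controls; DSS from the fitted curve.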

[2] = system: DERL-7 (IL-2 2.5 ng/mL); test: as above; conditions: 72 h
[3] = system: IMC-1 (IL-2 20 ng/mL); test: as above; conditions: 72 h
[4] = system: KAI3 (IL-2 2.5 ng/mL); test: as above; conditions: 72 h
[5] = system: KHYG-1 (IL-2 2.5 ng/mL); test: as above; conditions: 72 h
[6] = system: NK-92 (IL-2 2.5 ng/mL); test: as above; conditions: 72 h
[7] = system: NK-YS (IL-2 2.5 ng/mL); test: as above; conditions: 72 h
[8] = system: NKL (IL-2 2.5 ng/mL); test: as above; conditions: 72 h
[9] = system: SNK-6 (IL-2 2.5 ng/mL); test: as above; conditions: 72 h
[10] = system: YT (IL-2 2.5 ng/mL); test: as above; conditions: 72 h
[11] = system: normal primary NK cells, pool 1 (3 donors) (IL-2 2.5 ng/mL); test: as above; conditions: 72 h
[12] = system: normal primary NK cells, pool 1 (3 donors), resting (IL-2 0 ng/mL); test: as above; conditions: 72 h
[13] = system: normal primary NK cells, pool 2 (3 donors) (IL-2 2.5 ng/mL); test: as above; conditions: 72 h
[14] = system: normal primary NK cells, pool 3 (3 donors) (IL-2 2.5 ng/mL); test: as above; conditions: 72 h
[15] = system: normal NK cells expanded with K562-aAPC; test: drug sensitivity score (DSS) (DSS units); higher = more sensitive; extreme values may be limits of the assay; conditions: 72 h; IL-2 2.5 ng/mL
Method: as §1

[16] = system: DERL-7 (IL-2 2.5 ng/mL); test: as above; conditions: 72 h
[17] = system: IMC-1 (IL-2 20 ng/mL); test: as above; conditions: 72 h
[18] = system: KAI3 (IL-2 2.5 ng/mL); test: as above; conditions: 72 h
[19] = system: KHYG-1 (IL-2 2.5 ng/mL); test: as above; conditions: 72 h
[20] = system: NK-92 (IL-2 2.5 ng/mL); test: as above; conditions: 72 h
[21] = system: NK-YS (IL-2 2.5 ng/mL); test: as above; conditions: 72 h
[22] = system: NKL (IL-2 2.5 ng/mL); test: as above; conditions: 72 h
[23] = system: SNK-6 (IL-2 2.5 ng/mL); test: as above; conditions: 72 h
[24] = system: YT (IL-2 2.5 ng/mL); test: as above; conditions: 72 h
[25] = system: normal primary NK cells, pool 1 (3 donors) (IL-2 2.5 ng/mL); test: as above; conditions: 72 h
[26] = system: normal primary NK cells, pool 1 (3 donors), resting (IL-2 0 ng/mL); test: as above; conditions: 72 h
[27] = system: normal primary NK cells, pool 2 (3 donors) (IL-2 2.5 ng/mL); test: as above; conditions: 72 h
[28] = system: normal primary NK cells, pool 3 (3 donors) (IL-2 2.5 ng/mL); test: as above; conditions: 72 h

CC[C@H](Nc1ncnc2[nH]cnc12)c1nc2cccc(F)c2c(=O)n1-c1ccccc1 [Idelalisib] (max concentration tested 10000 nM)
percent inhibition of viability [%]
Conditions	1 nM	10 nM	100 nM	1000 nM	10000 nM
[1]	-1.29	-3.37	3.42	14.1	38.7
[2]	0.81	7.45	12.8	35.1	66.8
[3]	-6.02	-6.45	-0.47	-2.08	11.1
[4]	-6.15	4.84	14.3	12.3	24.5
[5]	-5.24	5.27	6.69	5.88	20.5
[6]	7.56	15.2	42.3	40.1	54.5
[7]	-9.88	-3.78	3.49	-1.8	18
[8]	-12.5	-5.82	11	18.2	37
[9]	-11.8	-5.04	17.2	23.9	57.8
[10]	1.69	6.88	13.7	12.4	27.4
[11]	-2.62	10.2	9.54	5.66	28.7
[12]	1.24	15.1	10.3	1.19	46.2
[13]	-10.8	-5.29	14.8	13.4	35.6
[14]	-3.21	-0.12	6.64	10.3	26.2

Conditions	drug sensitivity score
[15]	3.47
[16]	8.42
[17]	0
[18]	2.76
[19]	0.8
[20]	14.8
[21]	0.36
[22]	3.92
[23]	6.33
[24]	3
[25]	1.85
[26]	2.55
[27]	3.36
[28]	1.78

CNC(=O)c1cc(Oc2ccc(NC(=O)Nc3ccc(Cl)c(C(F)(F)F)c3)c(F)c2)ccn1 [Regorafenib] (max concentration tested 10000 nM)
percent inhibition of viability [%]
Conditions	1 nM	10 nM	100 nM	1000 nM	10000 nM
[1]	3.1	-1.28	-0.64	-2.22	19.1
[2]	2.39	2.44	-0.06	27.7	70.5
[3]	-4.09	-5.72	3.85	6.77	39.6
[4]	-0.04	-3.7	-6.12	-2.83	85.1
[5]	-1.86	-1.02	1.17	11.2	87.3
[6]	0.49	12.1	12	37.9	85.7
[7]	-1	-1.21	3.83	15.4	67
[8]	-7.68	-18.9	-10.6	17.4	70.8
[9]	9.61	17.5	36.1	38.7	63.7
[10]	2	0.08	3.65	21.9	100
[11]	-13.1	1.52	-11	1.66	79.7
[12]	6.64	8.24	-7.13	12.5	79.3
[13]	-10.1	-16.9	-7.59	12.1	61
[14]	-11.7	-13.3	-6.26	6.56	48.1

Conditions	drug sensitivity score
[15]	0.41
[16]	7.66
[17]	3.09
[18]	4.49
[19]	6.71
[20]	9.31
[21]	6.12
[22]	6.61
[23]	13.9
[24]	8.99
[25]	4.63
[26]	6.48
[27]	5.3
[28]	3.62

Cc1ccc(NC(=O)c2ccc(CN3CCN(C)CC3)cc2)cc1Nc1nc(-c2cccnc2)cs1 [Masitinib] (max concentration tested 10000 nM)
percent inhibition of viability [%]
Conditions	1 nM	10 nM	100 nM	1000 nM	10000 nM
[1]	-1.56	-0.88	-2.2	6.06	99.6
[2]	-4.46	4.7	-3.25	14.7	99.9
[3]	-6.41	-3.52	-8.01	-3.09	100
[4]	0.17	0.29	-11.5	2.65	96.5
[5]	-4.84	3.44	-1.97	5.87	97.8
[6]	-1.64	6.19	1.77	-11.2	96.5
[7]	-1.57	-2.35	1.86	14.4	98.2
[8]	-13.2	-15.1	-14.2	-3.8	96.7
[9]	11	9.07	-33.7	-49.3	86.9
[10]	0.22	-0.59	-2.17	8.04	97.5
[11]	-9.84	-12.7	-4.81	-1.08	98.6
[12]	-13.3	-12	9.4	-3	95.5
[13]	-10.8	-9.27	-8.85	-5.72	90.7
[14]	-9.21	-14.7	-12.2	-0.94	86.2

Conditions	drug sensitivity score
[15]	6.42
[16]	7.97
[17]	5.34
[18]	5.72
[19]	6.29
[20]	4.64
[21]	7.84
[22]	5.08
[23]	3.3
[24]	6.67
[25]	5.41
[26]	5.07
[27]	4.61
[28]	4.72

From the supplement of paper PMC5908809
